Test results reported in patent US8993603B2, “Pharmaceutical composition and method using antifungal agent in combination” (Toyama Chemical Co., Ltd., priority 2005, dated 2015).

Assays:
[1] = test system: Aspergillus fumigatus TIMM0063; assay: Mouse systemic infection model using Aspergillus fumigatus; assay type: in vivo; conditions: ICR mice, 15 days after infection, test compound 0.1 mg/kg s.c., once a day, 7 times
Protocol: In vivo activity was evaluated employing a mouse systemic infection model using Aspergillus fumigatus.
As for the inoculum, mice (four-week old (at infection) male ICR mice, 10 mice per group) were intraperitoneally administered with cyclophosphamide 4 days prior to infection (200 mg/kg) and the day after infection (100 mg/kg). A conidium suspension of Aspergillus fumigatus TIMM0063 was diluted with sterile physiological saline solution containing 0.05% Tween 80 (manufactured by Difco Laboratories) to prepare an inoculum. The mice were intravenously inoculated in their tails with 0.2 mL of the inoculum to induce infection (approximately 4×10^4 CFU/mouse).
(§1) The test compound was dissolved in a small amount of 0.1 mol/L hydrochloric acid, and the resultant solution was diluted with sterile physiological saline solution.
Voriconazole was dissolved in 50 mg/mL aqueous sulfobutyl ether β-cyclodextrin sodium (SIDIX) solution.
Flucytosine was suspended in 0.5% methyl cellulose solution.
(§2) The test compound (0.1 mg/kg) and voriconazole (5 mg/kg) were subcutaneously administered and flucytosine (50 mg/kg) was orally administered 2 hours after infection and then once a day for 6 days for a total of 7 times. The test was carried out for the case where each of the agents was administered singly and in combination by administering each of the agents immediately after the test compound had been administered. Efficacy in the susceptibility test was evaluated by the survival rate 15 days after infection.

[2] = test system: Cryptococcus neoformans ATCC90112; assay: Mouse systemic infection model using Cryptococcus neoformans; assay type: in vivo; conditions: ICR mice, 22 days after infection, test compound 0.125 mg/kg s.c., once a day, 7 times
Protocol: In vivo activity was evaluated employing a mouse systemic infection model using Cryptococcus neoformans.
Mice (four-week old (at infection) male ICR mice, 10 mice per group) were intraperitoneally administered with cyclophosphamide 4 days prior to infection (200 mg/kg) and the day after infection (100 mg/kg). An inoculum was prepared by suspending in sterile physiological saline solution Cryptococcus neoformans ATCC90112 on a SDA flat plate that had been cultured for one night at 35° C., counting the number of cells using a biological microscope, and then diluting with sterile physiological saline solution. The mice were intravenously inoculated in their tails with 0.2 mL of the inoculum to induce infection (approximately 8×10^4 CFU/mouse).
as §1
Fluconazole was prepared using sterile physiological saline solution.
Amphotericin B was dissolved in a 5% aqueous glucose solution.
as §2, with “(0.125 mg/kg), fluconazole (5” for “(0.1”, “amphotericin B (0.25” for “voriconazole (5”, “subcutaneously” for “subcutaneously administered and flucytosine (50 mg/kg) was orally”, “days” for “days for”, “where the” for “where”, “22” for “15”

[3] = Table 5, flucytosine 50 mg/kg orally
[4] = Table 7, amphotericin B 0.25 mg/kg s.c.
[5] = Table 6, fluconazole 5 mg/kg s.c.
[6] = Table 4, voriconazole 5 mg/kg s.c.

Compound | Survival rate (%) [1, 3] | Survival rate (%) [2, 4] | Survival rate (%) [2, 5] | Survival rate (%) [1, 6]
Nc1[nH]c(=O)ncc1F [5-FC, flucytosine] | 10% | – | – | –
C[C@@H]1[C@H](O)[C@@H](C)/C=C/C=C/C=C/C=C/C=C/C=C/C=C/[C@H](O[C@@H]2O[C@H](C)[C@@H](O)[C@H](N)[C@@H]2O)C[C@@H]2O[C@](O)(C[C@@H](O)C[C@@H](O)[C@H](O)CC[C@@H](O)C[C@@H](O)CC(=O)O[C@H]1C)C[C@H](O)[C@H]2C(=O)O [AMPH-B, amphotericin B] | – | 20% | – | –
OC(Cn1cncn1)(Cn1cncn1)c1ccc(F)cc1F [FLCZ, fluconazole] | – | – | 10% | –
N=C(N)c1ccc(OCCCC2CCN(CCCOc3ccc(C(=N)N)cc3)CC2)cc1 [Test Compound] | 10% | 0% | 20% | 10%
C[C@@H](c1ncncc1F)[C@](O)(Cn1cncn1)c1ccc(F)cc1F [VLCZ, voriconazole] | – | – | – | 10%
